# Experimental data taken from US9487490B2, “3-cyclohexenyl and cyclohexyl substituted indole and indazole compounds as RORgammaT inhibitors and uses thereof” (Merck Sharp & Dohme Corp., priority 2012, dated 2016).
# pIC50: −log10 of the molar value.
# Biological target: human RORgammaT-Ligand Binding Domain (LBD) (Homo sapiens (Human), UniProt P51449)
# Test: RORγ-Ligand Binding Domain TR-FRET assay (co-activator peptide SRC1_2 recruitment)
# Type: biochemical
# Conditions: HIS-tagged RORγ-LBD 3 nM, biotinylated SRC1 LXXLL peptide 100 nM, incubated overnight at 4° C., 665 nm/615 nm signal quotient; read-out: Fret IC50
# Description: Activation of RORgammaT activity can be measured using, e.g., biochemical TR-FRET assay. In such an assay, interaction of cofactor-derived peptides with human RORgammaT-Ligand Binding Domain (LBD) can be measured.
# To identify novel antagonists of RORgammaT, an assay was developed which employs the interaction of RORgammaT with its co-activator peptide SRC1_2. […] The RORγ-Ligand Binding Domain TR-FRET Assay was run according to the following protocol.
# HIS-tagged RORγ-LBD protein was expressed in SF9 cells using a baculovirus expression system. The RORγ-LBD protein was purified by glutathione sepharose chromatography. Separately, SF9 cells not expressing any recombinant protein were lysed and the lysate was added to the purified RORγ-LBD at 0.25 μl lysate (from 10,000 SF9 cells)/nM purified protein. The mixture was then diluted in assay buffer (50 mM Tris pH 7.0, 50 mM KCl, 1 mM EDTA, 0.1 mM DTT) to obtain RORγ-LBD final concentration of 3 nM in 384-well assay plate.
# Compounds to be tested were injected to the assay plate using Acoustic Droplet Ejection technology by Echo 550 liquid handler (Labcyte, Calif.).
# human RORgammaT-Ligand Binding Domain (LBD), sequence (P51449 269-508): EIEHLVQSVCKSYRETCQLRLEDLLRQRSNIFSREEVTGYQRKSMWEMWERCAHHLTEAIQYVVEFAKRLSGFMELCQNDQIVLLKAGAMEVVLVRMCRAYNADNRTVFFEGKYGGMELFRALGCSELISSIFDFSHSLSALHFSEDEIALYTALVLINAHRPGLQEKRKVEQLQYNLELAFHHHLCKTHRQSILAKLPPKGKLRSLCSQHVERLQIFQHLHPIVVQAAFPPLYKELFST
row,SMILES,pIC50
1,"O=C(O)C1CC=C(c2nn(C(=O)c3c(Cl)cccc3C(F)(F)F)c3cc(C(=O)N4CC(F)C4)ccc23)CC1 (centres unmarked) [Example 4X, 4-(1-(2-chloro-6-(trifluoromethyl)benzoyl)-6-(3-fluoroazetidine-1-carbonyl)-1H-indazol-3-yl)cyclohex-3-enecarboxylic acid]",8.52
2,"O=C(O)C1CC=C(c2nn(C(=O)c3c(Cl)cccc3C(F)(F)F)c3cc(C(=O)N4CCCCC4)ccc23)CC1 (centres unmarked) [Example 4Y, 4-(1-(2-chloro-6-(trifluoromethyl)benzoyl)-6-(piperidine-1-carbonyl)-1H-indazol-3-yl)cyclohex-3-enecarboxylic acid]",6.80
3,"CNCC(CO)OC(=O)c1ccc2c(C3=CCC(C(=O)O)CC3)nn(C(=O)c3c(Cl)cccc3C(F)(F)F)c2c1 (centres unmarked) [Example 4Z, 4-(1-(2-chloro-6-(trifluoromethyl)benzoyl)-6-(((1-hydroxy-3-(methylamino)propan-2-yl)oxy)carbonyl)-1H-indazol-3-yl)cyclohex-3-enecarboxylic acid]",6.59
4,"O=C(O)C1CC=C(c2cn(C(=O)c3c(Cl)cccc3C(F)(F)F)c3cccc(F)c23)CC1 (centres unmarked) [Example 5A, 4-(1-(2-chloro-6-(trifluoromethyl)benzoyl)-4-fluoro-1H-indol-3-yl)cyclohex-3-enecarboxylic acid]",8.40
5,"O=C(O)C1CCC(c2nn(C(=O)c3c(Cl)cccc3C(F)(F)F)c3cccc(F)c23)=CC1O (centres unmarked) [Example 6A, 4-(1-(2-chloro-6-(trifluoromethyl)benzoyl)-4-fluoro-1H-indazol-3-yl)-2-hydroxycyclohex-3-enecarboxylic acid]",8.70
6,"O=C(O)C1CC=C(c2nn(C(=O)c3c(Cl)cccc3C(F)(F)F)c3cccc(F)c23)CC1O (centres unmarked) [Example 6B, 4-(1-(2-chloro-6-(trifluoromethyl)benzoyl)-4-fluoro-1H-indazol-3-yl)-6-hydroxycyclohex-3-enecarboxylic acid]",7.82
7,"CC1(c2nn(C(=O)c3c(Cl)cccc3C(F)(F)F)c3cccc(F)c23)CCC(C(=O)O)CC1 (centres unmarked) [Example 7A, 4-(1-(2-chloro-6-(trifluoromethyl)benzoyl)-4-fluoro-1H-indazol-3-yl)-4-methylcyclohexanecarboxylic acid]",5.73
8,"C[C@]1(c2nn(C(=O)c3c(Cl)cccc3C(F)(F)F)c3cccc(F)c32)CC[C@H](C(=O)O)CC1 [Example 7B, (trans)-4-(1-(2-chloro-6-(trifluoromethyl)benzoyl)-4-fluoro-1H-indazol-3-yl)-4-methyl cyclohexanecarboxylic acid]",6.18
9,"C[C@]1(c2nn(C(=O)c3c(Cl)cccc3C(F)(F)F)c3cccc(F)c32)CC[C@@H](C(=O)O)CC1 [Example 7C, (cis)-4-(1-(2-chloro-6-(trifluoromethyl)benzoyl)-4-fluoro-1H-indazol-3-yl)-4-methylcyclohexanecarboxylic acid]",6.06
10,"C[C@]1(C(=O)O)CC[C@H](c2nn(C(=O)c3c(Cl)cccc3C(F)(F)F)c3cccc(F)c32)CC1 [Example 9A, (trans)-4-(1-(2-chloro-6-(trifluoromethyl)benzoyl)-4-fluoro-1H-indazol-3-yl)-1-methylcyclohexanecarboxylic acid]",7.30
11,"C[C@]1(C(=O)O)CC[C@@H](c2nn(C(=O)c3c(Cl)cccc3C(F)(F)F)c3cccc(F)c32)CC1 [Example 9B, (cis)-4-(1-(2-chloro-6-(trifluoromethyl)benzoyl)-4-fluoro-1H-indazol-3-yl)-1-methylcyclohexanecarboxylic acid]",5.30
12,"O=C(c1c(Cl)cccc1C(F)(F)F)n1nc([C@H]2CC[C@H](C(=O)O)CC2)c2ncccc21 [Example 11A, (trans)-4-(1-(2-chloro-6-(trifluoromethyl)benzoyl)-1H-pyrazolo[4,3-b]pyridin-3-yl)cyclohexanecarboxylic acid]",6.68
13,"O=C(c1c(Cl)cccc1C(F)(F)F)n1nc([C@H]2CC[C@@H](C(=O)O)CC2)c2ncccc21 [Example 11B, (cis)-4-(1-(2-chloro-6-(trifluoromethyl)benzoyl)-1H-pyrazolo[4,3-b]pyridin-3-yl)cyclohexanecarboxylic acid]",5.00
14,"O=C(O)C1CCC(O)(c2nn(C(=O)c3c(Cl)cccc3C(F)(F)F)c3cccc(F)c23)CC1 (centres unmarked) [Example 13A, 4-(1-(2-chloro-6-(trifluoromethyl)benzoyl)-4-fluoro-1H-indazol-3-yl)-4-hydroxycyclohexanecarboxylic acid]",5.61
